Experimental data: patent US10800734B2, “Memantine compounds and their preparation and uses thereof” (Sunshine Lake Pharma Co., Ltd., priority 2016, dated 2020)
Read-outs that look alike come from different tables or passages of the source.

Tests used:
[1] = assay type: in vitro ADME; conditions: human, microsomes, 1 μM, pH 7.4
Description: (§1) Analytical LC/MS/MS systems: Agilent 1200 Series vacuum degasser, dual-injection pump, orifice autosampler, column incubator, charged spray ionization (ESI) source, and Agilent G6430 three-stage quadrupole mass spectrometer. The quantitative analysis is performed in the MRM mode, with the following MRM conversion parameters:
Analytical Agilent Poroshell HPH-C18: 2.1×50 mm, 2.7 μM column, 20 μL of sample was injected. Conditions: mobile phase with ammonium formate+0.1% formic acid (A) and methanol+2 mM ammonium formate+0.1% formic acid (B). The flow rate was 0.3 mL/min. The mobile phase gradient is as follows: […]
Agilent 6330 Series LC/MS/MS spectrometer was equipped with G1312A binary injection pump, G1367A automatic sampler and MS/MS detector; LC/MS/MS was used with ESI source. Suitable cationic model treatments and MRM conversion were used for each analyte using standard solution for optimal analysis. The Agilent Poroshell HPH-C18 column was used during the analysis with a specification of 100×4.6 mm I.D., 5 μM. The mobile phase included ammonium formate+0.1% formic acid (A) and methanol+2 mM ammonium formate+0.1% formic acid (B). The flow rate was 0.3 mL/min; the column temperature was maintained at 40° C.; 20 μL of sample was injected.
A human liver microsomal incubation system was used for the testing. The incubation mixtures included human or rat liver microsomes (0.5 mg protein/mL), the tested compound was provided at 1 μM. The compound was dissolved in DMSO and diluted with acetonitrile water and mixed with a mixture of liver microparticle potassium phosphate buffer solution (pH=7.4). The above operations were done on wet ice, and incubated in a thermostatic incubator at 37° C. At different time points (0, 60 and 120 min), ice-cold acetonitrile was added to terminate the reaction. NADPH was not added during the reaction, and the effect of esterase on its conversion was examined. Samples were stored at −80° C. until LC/MS/MS analysis was performed.
The conversion of the compounds of the disclosure to active adamantane compound, which is memantine in the human liver microsome was determined by LC/MS/MS.

[2] = In vivo pharmacokinetics after intramuscular administration in rats
Description: Legend format: tested compound/dose (mg/kg)/converted active adamantane compound, which is memantine.
as §1
Waters XBridge TMC18, 2.1×30 mm, 3.5 μM column; 20 μL of sample was injected in each run. Conditions: The mobile phase included […]+2 mM ammonium formate+0.1% formic acid (A) and methanol+2 mM ammonium formate+0.1% formic acid (B). The flow rate was 0.35 mL/min. The mobile phase gradient is as follows: […]
Additional instruments and reagents included Agilent 6330 Series LC/MS/MS spectrometer equipped with a G1312A Binary Injection Pump, G1367A autosampler and MS/MS Detector for analysis; LC/MS/MS spectrometer with ESI source. Suitable cationic model treatments and MRM conversion were used for each analyte using standard solution for optimal analysis. Waters XBridge TMC18 was used with specifications of 2.1×30 mm, 3.5 μM. The reaction was carried out with ammonium formate+2 mM ammonium formate+0.1% formic acid (A) and methanol+2 mM ammonium formate+0.1% formic acid (B). The flow rate was 0.35 mL/min; the column temperature was maintained at 40° C.; 10 μL of sample was injected.
This example conducted pharmacokinetic studies of various compounds of the present disclosure in rats. The compounds were subjected to pretreatment including grinding and sieving, and were then added to a mixture formed by dissolving and dispersing in Tween-20 and/or Span-20. The mixtures were uniformly dispersed and fixed. The suspensions were pulverized by a ball mill […]. Memantine (MJG, 17.5 mg/kg) or tested compounds (75 or 37.5 mg/kg) were administered by intramuscular administration. Whole blood was collected at 0.25, 1, 2, 5, 7, 24, 48, 72, 96, 120, 148 and 196 h, was centrifuged at 12,000 g for 2 minutes. Plasma was collected and stored at −20° C. or −70° C. until the LC/MS/MS analysis was performed.

[3] = rat, im, solution, 17.5 mg/kg, memantine in plasma

Compound | Percentage of Remaining or Converted Active Adamantane Compound ([1]; 1 h) [%] | Percentage of Remaining or Converted Active Adamantane Compound ([1]; 2 h) [%] | AUC(0-t) [2, 3] [ng·h/mL] | Cmax [2, 3] [ng/mL] | Tmax [2, 3] [h] | half-life ([2]; rat, plasma, im, 17.5 mg/kg, solution, 17.5 mg/kg, memantine in plasma, read-out: T½ (converted)) [min] | T½ ([2]; solution, 17.5 mg/kg, memantine in plasma) [h] | T½ ([2]; suspension, 75 mg/kg, converted memantine in plasma)
CCCCCCCCCCCCCCCC(=O)OCOC(=O)NC12CC3CC(C)(CC(C)(C3)C1)C2 [Compound 4] | 25.3 | 34 |  |  |  |  |  | 
CC12CC3CC(C)(C1)CC(NC(=O)OCOC(=O)Cc1cccc4ccccc14)(C3)C2 [Compound 1] | 108 | 101 |  |  |  |  |  | 

Second part, the molecule after the results:

Percentage of Remaining or Converted Active Adamantane Compound ([1]; 1 h) [%] | Percentage of Remaining or Converted Active Adamantane Compound ([1]; 2 h) [%] | AUC(0-t) [2, 3] [ng·h/mL] | Cmax [2, 3] [ng/mL] | Tmax [2, 3] [h] | half-life ([2]; rat, plasma, im, 17.5 mg/kg, solution, 17.5 mg/kg, memantine in plasma, read-out: T½ (converted)) [min] | T½ ([2]; solution, 17.5 mg/kg, memantine in plasma) [h] | T½ ([2]; suspension, 75 mg/kg, converted memantine in plasma) | Compound
98 | 98 | 11800 | 1940 | 1.33 | ~240 | 4 |  | CC12CC3CC(C)(C1)CC(N)(C3)C2 [MJG, memantine]
35.6 | 35.6 |  |  |  |  |  |  | CCCCCCCCCCCC(=O)OCOC(=O)NC12CC3CC(C)(CC(C)(C3)C1)C2 [Compound 3]
134 | 118 |  |  |  |  |  | too high to be measurable | CC12CC3CC(C)(C1)CC(NC(=O)OCOC(=O)c1ccccc1)(C3)C2 [Compound 2]
